Results published in patent publication US20230270148A1, “BITTER BLOCKERS AND RELATED METHODS OF USE” (Conagen Inc., priority 2020, published 2023).

What was measured:
[1] = test system: peach-flavored energy drink (caffeine, B vitamins); test: Sensory evaluation: bitterness reduction of a peach-flavored energy drink; type: in vivo; conditions: for Estimated % bitterness reduction: caffeine about 710 mg/l, dosage (ppm) per sample (20 to 50-100 ppm); for Comments: dosage per sample
Protocol: (§1) The bitterness blocker candidates listed in Table 1 were prepared into a 1% sample solution with propylene glycol and heated to ensure complete solubilization. […] A trained sensory evaluator was asked to estimate the perceived bitterness reduction against the control, as well as to provide comments on how the addition of the individual sample solution modulated the taste and mouth feel profile of the resulting peach-flavored energy drink.

[2] = test system: THC nanoemulsion; test: Sensory evaluation: bitterness reduction of THC; type: in vivo; conditions: dosage 50 or 100 ppm per sample; for Estimated % bitterness reduction: THC nanoemulsion (10 mg THC per serving); for Comments: THC nanoemulsion
Protocol: (§2) The bitterness blocker candidates listed in Table 1 were prepared into a 1% sample solution with propylene glycol and heated to ensure complete solubilization. […] THC was first emulsified into a water-soluble nanoemulsion (10 mg THC per serving), to which was added the respective sample solution. A trained sensory evaluator was asked to estimate the perceived bitterness reduction against the control, as well as to provide comments on how the addition of the individual sample solution modulated the taste and mouth feel profile of the resulting nanoemulsion.

[3] = test system: 0.25% caffeine solution; test: Sensory evaluation: bitterness reduction of a caffeine solution; type: in vivo; conditions: for Estimated % bitterness reduction: one trained sensory evaluator, vs control, dosage (ppm) per sample (20 to 50-100 ppm); for Comments: taste and mouth feel comments, dosage per sample
Protocol: as §1, with “The bitter” for “The bitterness”, “glycol (i.e., 1 g of bitter blocker per 100 ml of propylene glycol)” for “glycol”, “resulting caffeine solution.” for “resulting peach-flavored energy drink.”

[4] = test system: melted dark chocolate pieces with 100% dark cacao; test: Sensory evaluation: bitterness reduction of dark chocolate pieces; type: in vivo; conditions: dosage 50 or 100 ppm per sample
Protocol: (§3) The bitterness blocker candidates listed in Table 1 were prepared into a 1% sample solution with propylene glycol and heated to ensure complete solubilization. […] Individually, the respective sample solution was added to melted dark chocolate pieces with 100% dark cacao. A trained sensory evaluator was asked to estimate the perceived bitterness reduction against the control, as well as to provide comments on how the addition of the individual sample solution modulated the taste and mouth feel profile of the resulting melted dark chocolate pieces.

[5] = test system: dark roast coffee; test: Sensory evaluation: bitterness reduction of dark roast coffee; type: in vivo; conditions: dosage 50 or 100 ppm per sample; for Estimated % bitterness reduction: caffeine about 740 mg/l
Protocol: as §1, with “dark roast coffee.” for “peach-flavored energy drink.”

[6] = test system: CBD isolate nanoemulsion; test: Sensory evaluation: bitterness reduction of CBD isolate; type: in vivo; conditions: dosage 50 or 100 ppm per sample
Protocol: as §2, with “A CBD isolate” for “THC”, “was” for “was first”, “first,” for “(10 mg THC per serving),”, “solution. […]” for “solution.”

[7] = test system: cough syrup ROBITUSSIN DM (dextromethorphan HBr and guaifenesin); test: Sensory evaluation: bitterness reduction of cough syrup ROBITUSSIN DM; type: in vivo; conditions: dosage 50 or 100 ppm per sample; for Estimated % bitterness reduction: 21000 mg/l of bitter tastants
Protocol: as §3, with “a cough syrup sold under the trade name ROBITUSSIN® DM. The bitter-tasting agents contained in the cough syrup were dextromethorphan HBr USP 20 mg and guaifenesin USP 400 mg (as measured for each 20 ml serving, or 21000 mg/l of bitter tastants in total).” for “melted dark chocolate pieces with 100% dark cacao.”, “cough syrup.” for “melted dark chocolate pieces.”

[8] = test system: cough syrup DELSYM (dextromethorphan HBr); test: Sensory evaluation: bitterness reduction of cough syrup DELSYM; type: in vivo; conditions: dosage 50 or 100 ppm per sample; for Estimated % bitterness reduction: 6000 mg/l of dextromethorphan
Protocol: as §3, with “a cough syrup sold under the trade name DELSYM®. The bitter-tasting agent contained in the cough syrup were dextromethorphan HBr USP 30 mg (as measured for each 5 ml teaspoon, i.e., 6000 mg/l of dextromethorphan).” for “melted dark chocolate pieces with 100% dark cacao.”, “cough syrup.” for “melted dark chocolate pieces.”

[9] = test system: full spectrum CBD hemp oil nanoemulsion; test: Sensory evaluation: bitterness reduction of full spectrum CBD hemp oil; type: in vivo; conditions: dosage 50 or 100 ppm per sample
Protocol: as §2, with “A full spectrum CBD hemp oil” for “THC”, “was” for “was first”, “first,” for “(10 mg THC per serving),”, “solution. […]” for “solution.”, “resulting oil” for “resulting”

[10] = test system: caffeine in water; test: Two-alternative forced choice (2AFC) difference test; type: in vivo
Protocol: The bitter blocker candidates BB09, BB11, and BB13 were subject to a two-alternative forced choice (2AFC) difference test wherein panelists were presented Control Caffeine solutions and Test solutions containing caffeine and one of three bitterness blocker candidates (BB09, BB 11, or BB13). Panelists were asked to evaluate the two samples and answer the question, “which one is more hitter?”
BB09 and BB11 were tested first. Three ounces of control (caffeine in water), BB09 in caffeine water, and BB11 in caffeine water were presented at room temperature in separate plastic souffle cups labeled with 3-digit codes. Ten sensory trained panelists evaluated each sample in three repetitions with a 10 minute break between repetitions. Panelists then completed the 2AFC. Data was collected on EveQuestion and analyzed on XLSTAT. Testing was conducted at Sensations Research according to FEMA guidelines.
BB13 was tested separately. Two ounces of control (caffeine in water), BB13 in caffeine water were presented at room temperature in separate plastic souffle cups labeled with 3-digit codes. Fifteen participants evaluated each sample in two repetitions with a 10 minute break between repetitions for a total of thirty evaluations as per the FEMA guidelines. Panelists then completed the 2AFC to identify the more bitter sample. Data was collected and analyzed on Compusense.

[11] = test system: bitter-responsive human taste bud tissue-derived cells (hTBEC); test: ATP secretion detection assay (luminescence); type: cell-based
Protocol: The bitter blocker candidates were further characterized using bitter-responsive human taste bud tissue-derived cells (hTBEC) platforms and bioassays. Bitter-responsive hTBECs were treated with hitter blocker candidates and various bitter agonists to assess the efficacy of each bitter blocker candidate in reducing the bitterness of each of the various bitter agonists.
One industry standard bitter agonist was used as a control (L-Praziquantel), and five bitter blocker controls were used (Senomyx BB68, STX-001, sodium gluconate, eridictyol, and homoeridictyol).
BB09, BB11, and BB13 were first tested at various concentrations in combination with 100 μM Dextromethorphan-HBr.
Next, bitter blocker concentration ranges were narrowed (100 μM-1,000 μM) and compared to a fixed concentration of stimulus. […] BB13 was evaluated further by real time ATP secretion detection in pooled hTBEC 66 cells treated with 300 μM Theobromine.
Each culture was treated with BB09, BB11, BB13, STX001, or Senomyx BB68, as well as either Dextromethorphan-HBr at 1000 μM (FIGS. 18A-18C), Theobromine at 1,000 μM (FIGS. 19A-19C), Rebaudioside A at 1 mM (FIGS. 20A-20C), or Caffeine at 3 mM (FIGS. 21A-21C).

Row | Structure (SMILES) | Comments [3] | Comments [1] | Comments [2] | Comments [4] | Comments [5] | Comments [6] | Comments [8] | Comments [9] | other results
1 | O=C1C[C@@H](c2ccc(O[C@@H]3O[C@H](CO)[C@@H](O)[C@H](O)[C@H]3O)c(O)c2)Oc2cc(O)cc(O)c21 [BB12, Eriodictyol 4′-O-glucoside] | Some bitterness blocking on front |  |  |  |  |  |  |  | Estimated % bitterness reduction [1]: 30%; Estimated % bitterness reduction [2]: 30%; Estimated % bitterness reduction [3]: 30%; Estimated % bitterness reduction [4]: 30%; Estimated % bitterness reduction [5]: 30%; Estimated % bitterness reduction [6]: 30%; Estimated % bitterness reduction [7]: 30%; Estimated % bitterness reduction [8]: 30%; Estimated % bitterness reduction [9]: 30%
2 | COc1cc([C@@H]2CC(=O)c3c(O)cc(O)cc3O2)ccc1O [BB02, Homoeriodictyol] |  | Some blocking on sides and tip | Some blocking on sides and tip | Some blocking on sides and tip | Some blocking on sides and tip | Some blocking on sides and tip | Some blocking on sides and tip | Some blocking on sides and tip | Comments [7]: Some blocking on sides and tip
3 | COc1ccc(-c2cc(=O)c3c(O)cc(O)cc3o2)cc1 [BB01, Acacetin] | Some bitterness blocking on sides |  |  |  |  |  |  |  | 
4 | O=C1c2c(O)cc(O)cc2O[C@H](c2ccc(O)c(O)c2)[C@H]1O [BB04, Dihydroquercetin] | Some bitterness blocking on sides |  |  |  |  |  |  |  | 
5 | O=c1c(O)c(-c2ccc(O)cc2)oc2cc(O)cc(O)c12 [BB03, Kaempferol] | Some bitterness blocking on sides |  |  |  |  |  |  |  | 
6 | O=C1c2c(O)cc(O)cc2O[C@H](c2ccc(O)cc2)[C@H]1O [BB06, Dihydrokaempferol] | Some bitterness blocking on sides |  |  |  |  |  |  |  | 
7 | O=C1C[C@@H](c2ccc(O)c(O)c2)Oc2cc(O)cc(O)c21 [BB07, Eriodictyol] | Some bitterness blocking on all parts | Some bitterness blocking on all | Some bitterness blocking on all | Some bitterness blocking on all | Some bitterness blocking on all | Some bitterness blocking on all | Some bitterness blocking on all | Some bitterness blocking on all | Estimated % bitterness reduction [1]: 50%; Estimated % bitterness reduction [2]: 30%; Estimated % bitterness reduction [3]: 50%; Estimated % bitterness reduction [4]: 50%; Estimated % bitterness reduction [5]: 50%; Estimated % bitterness reduction [6]: 30%; Estimated % bitterness reduction [7]: 30%; Comments [7]: Some bitterness blocking on all; Estimated % bitterness reduction [8]: 30%; Estimated % bitterness reduction [9]: 30%
8 | COc1cc([C@@H]2CC(=O)c3c(O)cc(O[C@@H]4O[C@H](CO)[C@@H](O)[C@H](O)[C@H]4O)cc3O2)ccc1O [BB09, Homoeriodictyol 7-O-glucoside] | Good upfront bitterness reduction | Good upfront bitterness | Nice upfront bitterness reduction | Good bitterness reduction but | Nice upfront bitterness reduction | Nice upfront bitterness reduction | Covered up a good percentage of | Nice upfront bitterness reduction | Significant? ([10]; 2AFC, 90% confidence level, which sample is more bitter): Yes,; # Selected Variant (which is more bitter?) ([10]; of 30 responses (10 panelists, 3 evaluations), control caffeine in water vs variant in caffeine water): 10; real time Rebaudioside A-induced ATP secretion ([11]; 1 mM Rebaudioside A, blocker 1,000 μM, pooled hTBEC 56 cultures (FIG. 17)): attenuated; inhibition of the bitter agonists (ATP secretion) ([11]; hTBEC 66, hTBEC 56, hTBEC Donor H, Dextromethorphan-HBr at 1000 μM, Theobromine 1,000 μM, Rebaudioside A 1 mM or Caffeine 3 mM (FIGS. 18-21)): trends of inhibition in most cases
